Data from ChEMBL document CHEMBL3885881, “DrugMatrix”.

Species on record: Rattus norvegicus
Experiment: DrugMatrix - Regimen: Daily Repeat
Assay type: toxicity, organism-based, Sprague-Dawley
Set-up: regimen Daily Repeat, gender Male, age 6-8 weeks
Conditions: in vivo, po, route oral GAVAGE, vehicle .5 % CMC; for ABSOLUTE BASOPHIL / ABSOLUTE EOSINOPHIL / ABSOLUTE LYMPHOCYTE / ABSOLUTE MONOCYTE / ABSOLUTE SEGMENTED NEUTROPHIL / BASOPHIL / EOSINOPHIL / ERYTHROCYTE COUNT / HEMATOCRIT / HEMOGLOBIN / LEUKOCYTE COUNT / LYMPHOCYTE / MEAN CORPUSCULAR HEMOGLOBIN / MEAN CORPUSCULAR HEMOGLOBIN CONCENTRATION / MEAN CORPUSCULAR VOLUME / MONOCYTE / NEUTROPHIL / NUCLEATED RED BLOOD CELLS / PLATELET COUNT: tissue Blood; for ALANINE AMINOTRANSFERASE / ALBUMIN / ALKALINE PHOSPHATASE / ASPARTATE AMINOTRANSFERASE / BLOOD UREA NITROGEN / CARBON DIOXIDE / CHLORIDE / CHOLESTEROL / CREATINE PHOSPHOKINASE / CREATININE / GLUCOSE / LACTATE DEHYDROGENASE / LIPASE / PHOSPHORUS / POTASSIUM / SODIUM / TOTAL BILIRUBIN / TOTAL PROTEIN / URIC ACID: tissue Plasma
[1] = 0 mg/kg, 72 h, dose level Control, time 3 day
[2] = 0 mg/kg, 120 h, dose level Control, time 5 day
[3] = 20 mg/kg, 72 h, dose level Low, time 3 day

NC(=O)N1c2ccccc2CC(=O)c2ccccc21 [OXCARBAZEPINE]
ABSOLUTE BASOPHIL [1]: 0 CELLS/uL | ABSOLUTE EOSINOPHIL [1]: 0 CELLS/uL | ABSOLUTE LYMPHOCYTE [1]: 12269.67 CELLS/uL | ABSOLUTE MONOCYTE [1]: 160.33 CELLS/uL | ABSOLUTE SEGMENTED NEUTROPHIL [1]: 970 CELLS/uL | BASOPHIL [1]: 0% | EOSINOPHIL [1]: 0% | ERYTHROCYTE COUNT [1]: 5.76 x10E6/uL | HEMATOCRIT [1]: 36.57% | HEMOGLOBIN [1]: 14.22 G/DL | LEUKOCYTE COUNT [1]: 13.4 x10E3/uL | LYMPHOCYTE [1]: 91.67% | MEAN CORPUSCULAR HEMOGLOBIN [1]: 24.67 pg | MEAN CORPUSCULAR HEMOGLOBIN CONCENTRATION [1]: 38.85 G/DL | MEAN CORPUSCULAR VOLUME [1]: 63.52 fL | MONOCYTE [1]: 1.17% | NEUTROPHIL [1]: 7.17% | NUCLEATED RED BLOOD CELLS [1]: 0.33 /100WBC | PLATELET COUNT [1]: 1250.83 x10E3/uL | ALANINE AMINOTRANSFERASE [1]: 49.17 u/L | ALBUMIN [1]: 4.33 G/DL | ALKALINE PHOSPHATASE [1]: 378.5 u/L | ASPARTATE AMINOTRANSFERASE [1]: 82.17 u/L | BLOOD UREA NITROGEN [1]: 15 mg/dL | CARBON DIOXIDE [1]: 34.33 mmol/L | CHLORIDE [1]: 99.17 MEQ/L | CHOLESTEROL [1]: 71.17 mg/dL | CREATINE PHOSPHOKINASE [1]: 258.67 u/L | CREATININE [1]: 0.18 mg/dL | GLUCOSE [1]: 142.67 mg/dL | LACTATE DEHYDROGENASE [1]: 154.33 u/L | LIPASE [1]: 9 u/L | PHOSPHORUS [1]: 11.67 mg/dL | POTASSIUM [1]: 7.13 MEQ/L | SODIUM [1]: 142.22 MEQ/L | TOTAL BILIRUBIN [1]: 0.18 mg/dL | TOTAL PROTEIN [1]: 5.77 G/DL | URIC ACID [1]: 1.55 mg/dL | ABSOLUTE BASOPHIL [2]: 0 CELLS/uL | ABSOLUTE EOSINOPHIL [2]: 23.33 CELLS/uL | ABSOLUTE LYMPHOCYTE [2]: 14943.67 CELLS/uL | ABSOLUTE MONOCYTE [2]: 32 CELLS/uL | ABSOLUTE SEGMENTED NEUTROPHIL [2]: 1084.33 CELLS/uL | BASOPHIL [2]: 0% | EOSINOPHIL [2]: 0.17% | ERYTHROCYTE COUNT [2]: 5.71 x10E6/uL | HEMATOCRIT [2]: 35.28% | HEMOGLOBIN [2]: 14.27 G/DL | LEUKOCYTE COUNT [2]: 16.08 x10E3/uL | LYMPHOCYTE [2]: 93% | MEAN CORPUSCULAR HEMOGLOBIN [2]: 25.02 pg | MEAN CORPUSCULAR HEMOGLOBIN CONCENTRATION [2]: 40.43 G/DL | MEAN CORPUSCULAR VOLUME [2]: 61.82 fL | MONOCYTE [2]: 0.17% | NEUTROPHIL [2]: 6.67% | NUCLEATED RED BLOOD CELLS [2]: 0.33 /100WBC | PLATELET COUNT [2]: 1274 x10E3/uL | ALANINE AMINOTRANSFERASE [2]: 54.17 u/L | ALBUMIN [2]: 4.22 G/DL | ALKALINE PHOSPHATASE [2]: 373.17 u/L | ASPARTATE AMINOTRANSFERASE [2]: 81.83 u/L | BLOOD UREA NITROGEN [2]: 16.67 mg/dL | CARBON DIOXIDE [2]: 30.33 mmol/L | CHLORIDE [2]: 99 MEQ/L | CHOLESTEROL [2]: 71 mg/dL | CREATINE PHOSPHOKINASE [2]: 273.5 u/L | CREATININE [2]: 0.22 mg/dL | GLUCOSE [2]: 141.83 mg/dL | LACTATE DEHYDROGENASE [2]: 153.67 u/L | LIPASE [2]: 10.33 u/L | PHOSPHORUS [2]: 11.38 mg/dL | POTASSIUM [2]: 7.08 MEQ/L | SODIUM [2]: 142.75 MEQ/L | TOTAL BILIRUBIN [2]: 0.18 mg/dL | TOTAL PROTEIN [2]: 6.1 G/DL | URIC ACID [2]: 1.67 mg/dL | ABSOLUTE BASOPHIL [3]: 0 CELLS/uL | ABSOLUTE EOSINOPHIL [3]: 39.67 CELLS/uL | ABSOLUTE LYMPHOCYTE [3]: 12910 CELLS/uL | ABSOLUTE MONOCYTE [3]: 169.33 CELLS/uL | ABSOLUTE SEGMENTED NEUTROPHIL [3]: 1314.33 CELLS/uL | BASOPHIL [3]: 0% | EOSINOPHIL [3]: 0.33% | ERYTHROCYTE COUNT [3]: 5.51 x10E6/uL | HEMATOCRIT [3]: 35.53% | HEMOGLOBIN [3]: 14 G/DL | LEUKOCYTE COUNT [3]: 14.43 x10E3/uL | LYMPHOCYTE [3]: 90% | MEAN CORPUSCULAR HEMOGLOBIN [3]: 25.43 pg | MEAN CORPUSCULAR HEMOGLOBIN CONCENTRATION [3]: 39.43 G/DL | MEAN CORPUSCULAR VOLUME [3]: 64.5 fL | MONOCYTE [3]: 1.33% | NEUTROPHIL [3]: 8.33% | NUCLEATED RED BLOOD CELLS [3]: 0.33 /100WBC | PLATELET COUNT [3]: 1357.67 x10E3/uL | ALANINE AMINOTRANSFERASE [3]: 55.67 u/L | ALBUMIN [3]: 4.33 G/DL | ALKALINE PHOSPHATASE [3]: 378.33 u/L | ASPARTATE AMINOTRANSFERASE [3]: 87.67 u/L | BLOOD UREA NITROGEN [3]: 12.67 mg/dL | CARBON DIOXIDE [3]: 27.33 mmol/L | CHLORIDE [3]: 103 MEQ/L | CHOLESTEROL [3]: 73.33 mg/dL | CREATINE PHOSPHOKINASE [3]: 333.33 u/L | CREATININE [3]: 0.24 mg/dL | GLUCOSE [3]: 150.67 mg/dL | LACTATE DEHYDROGENASE [3]: 316 u/L | LIPASE [3]: 10 u/L | PHOSPHORUS [3]: 13.2 mg/dL | POTASSIUM [3]: 7.12 MEQ/L | SODIUM [3]: 146.57 MEQ/L | TOTAL BILIRUBIN [3]: 0.2 mg/dL | TOTAL PROTEIN [3]: 5.93 G/DL | URIC ACID [3]: 2.37 mg/dL
